Results published in patent US20150176022A1, “HERBICIDE-RESISTANT SUNFLOWER PLANTS, POLYNUCLEOTIDES ENCODING HERBICIDE=RESISTANT ACETO HYDROXY ACID SYNTHASE LARGE SUBUNIT PROTEINS, AND METHODS OF USE” (priority 2013, published 2015).
Several values for one entry are separate records, joined by “and”; a condition that tells them apart may be missing. Equal values may be shown once.

Columns and labels:
[1] = tested on: sunflower genotypes carrying the A205V mutation event; experiment: Greenhouse whole-plant imazapir dose response (Example 8), group mean; type: in vivo, Helianthus annuus; settings: 14 DAT; for biomass, Dif with control (reduction), A205V / plant height, Dif with Control (height reduction), A205V / root dry weight, Dif with control (reduction), A205V: A205V mean; for biomass accumulation (% of untreated), Mean A205V / root dry weight (% of untreated), Mean A205V / plant height (% of untreated), Mean A205V: mean of six A205V genotypes; for Phytotoxicity Index, Mean A205V: mean of three A205V genotypes
Method: (§1) A greenhouse study was conducted to quantify and contrast the imazapir sensitivity of the mutants A122T and A205V in different genetic backgrounds at the whole plant level in sunflower. Seeds of the different sunflower lines that were used in this study were obtained under field conditions.
(§2) Seeds were sown in Petri dishes and, after germination, plantlets were transplanted to pots of 10 cm of diameter in a potting media consisting of equal parts of vermiculite, soil and sand. Plants were grown in a greenhouse under natural light conditions supplemented with 400 W sodium halide lamps to provide a 16 hrs daylength. Day/night temperatures were 25 and 20° C., respectively. At the V2 stage 10 plants of each genotype were randomly assigned to each treatment consisting of […] imazapir doses (0, 40, 80, 160, 240, 320, 400 and 480 g ai/ha), and a zero-time biomass determination. Experiment was arranged as a randomized block design with a full factorial (sunflower line×treatment) arrangement of treatments and 10 replications.
(§3) On the day of herbicide application ten plants of each genotype were cut at the cotyledonal node and dried at 60° C. for 48 hrs zero-time for dried weight determination. […] Height was determined as the distance between the cotyledonal node and the apex of each plant. For root biomass determination, each plant was taken from the pot and the potting media was washed out from the roots. Above ground biomass data from each line were converted to biomass accumulation after application by subtracting the appropriate average zero-time biomass from each sample. Dry biomass data were converted to percentages of the untreated control plants within each line to allow direct comparisons between groups.

[2] = tested on: A122T versus A205V sunflower genotypes; experiment: Greenhouse whole-plant imazapir dose response (Example 8), difference between mutants; type: in vivo, Helianthus annuus; settings: difference of group means, 14 DAT
Method: as §1, §2, §3

In the case of `CC(C)C1(C)N=C(c2ncccc2C(=O)O)NC1=O` (stereo not shown) [imazapir, imazapyr], the “biomass, Dif with control (reduction), A205V” value (“biomass … (reduction), A205V” below) ([1]; 4× (320 g ai/ha)) is reported as 64.6%, the “plant height, Dif with Control (height reduction), A205V” value ([1]; 4× (320 g ai/ha)) is reported as 66.3% and the “root dry weight, Dif with control (reduction), A205V” value (“root dry weight … (reduction), A205V” below) ([1]; 4× (320 g ai/ha)) is reported as 68.9%. For the same compound, the “biomass … (reduction), A205V” value ([1]; 5× (400 g ai/ha)) was 67.6%, the “plant height, Dif with Control (height reduction), A205V” value ([1]; 5× (400 g ai/ha)) was 68.0% and the “root dry weight … (reduction), A205V” value ([1]; 5× (400 g ai/ha)) was 69.3%. For the same compound, the “biomass … (reduction), A205V” value ([1]; 6× (480 g ai/ha)) was 70.0%, the “plant height, Dif with Control (height reduction), A205V” value ([1]; 6× (480 g ai/ha)) was 68.9% and 69.8% and the “root dry weight … (reduction), A205V” value ([1]; 6× (480 g ai/ha)) was 75.6%. For the same compound, the “biomass accumulation (% of untreated), Mean A205V” value ([1]; 0.5× (40 g ai/ha)) was 94.5%, the “root dry weight (% of untreated), Mean A205V” value ([1]; 0.5× (40 g ai/ha)) was 87.2% and the “biomass accumulation (% of untreated), Mean A205V” value ([1]; 1× (80 g ai/ha)) was 82.2%. For the same compound, the “root dry weight (% of untreated), Mean A205V” value ([1]; 1× (80 g ai/ha)) was 70.8%, the “biomass accumulation (% of untreated), Mean A205V” value ([1]; 2× (160 g ai/ha)) was 61.6% and the “plant height (% of untreated), Mean A205V” value ([1]; 2× (160 g ai/ha)) was 69.2%. The “root dry weight (% of untreated), Mean A205V” value ([1]; 2× (160 g ai/ha)) was 50.6%, the “biomass accumulation (% of untreated), Mean A205V” value ([1]; 3× (240 g ai/ha)) was 47.6% and the “plant height (% of untreated), Mean A205V” value ([1]; 3× (240 g ai/ha)) was 50.4%. The “root dry weight (% of untreated), Mean A205V” value ([1]; 3× (240 g ai/ha)) was 39.2%, the “biomass accumulation (% of untreated), Mean A205V” value ([1]; 4× (320 g ai/ha)) was 35.4% and the “plant height (% of untreated), Mean A205V” value ([1]; 4× (320 g ai/ha)) was 33.7%. For the same compound, the “root dry weight (% of untreated), Mean A205V” value ([1]; 4× (320 g ai/ha)) was 31.1%, the “biomass accumulation (% of untreated), Mean A205V” value ([1]; 5× (400 g ai/ha)) was 32.4% and the “plant height (% of untreated), Mean A205V” value ([1]; 5× (400 g ai/ha)) was 32.0%. For the same compound, the “root dry weight (% of untreated), Mean A205V” value ([1]; 5× (400 g ai/ha)) was 30.7%, the “biomass accumulation (% of untreated), Mean A205V” value ([1]; 6× (480 g ai/ha)) was 30.0% and the “plant height (% of untreated), Mean A205V” value ([1]; 6× (480 g ai/ha)) was 30.2%. For the same compound, the “root dry weight (% of untreated), Mean A205V” value ([1]; 6× (480 g ai/ha)) was 24.4%, the “Phytotoxicity Index, Mean A205V” value ([1]; 2× (160 g ai/ha)) was 2.2 and the “Phytotoxicity Index, Mean A205V” value ([1]; 3× (240 g ai/ha)) was 5.1. The “Phytotoxicity Index, Mean A205V” value ([1]; 4× (320 g ai/ha)) was 7.4, the “Phytotoxicity Index, Mean A205V” value ([1]; 5× (400 g ai/ha)) was 8.2 and the “Phytotoxicity Index, Mean A205V” value ([1]; 6× (480 g ai/ha)) was 8.2. The “Phytotoxicity Index, Dif A205V-A122T” value ([2]; 0.5× (40 g ai/ha)) was −0.29, the “biomass, Dif A122T-A205V” value ([2]; 0.5× (40 g ai/ha)) was 4.3% and the “plant height, Dif A122T-A205V” value ([2]; 0.5× (40 g ai/ha)) was 4.9%. For the same compound, the “root dry weight, Dif A122T-A205V” value ([2]; 0.5× (40 g ai/ha)) was 12.7%, the “Phytotoxicity Index, Dif A205V-A122T” value ([2]; 1× (80 g ai/ha)) was −0.29 and the “biomass, Dif A122T-A205V” value ([2]; 1× (80 g ai/ha)) was 14.5%. The “plant height, Dif A122T-A205V” value ([2]; 1× (80 g ai/ha)) was 9.4%, the “root dry weight, Dif A122T-A205V” value ([2]; 1× (80 g ai/ha)) was 26.7% and the “Phytotoxicity Index, Dif A205V-A122T” value ([2]; 2× (160 g ai/ha)) was 1.87. For the same compound, the “biomass, Dif A122T-A205V” value ([2]; 2× (160 g ai/ha)) was 33.2%, the “plant height, Dif A122T-A205V” value ([2]; 2× (160 g ai/ha)) was 28.0% and the “root dry weight, Dif A122T-A205V” value ([2]; 2× (160 g ai/ha)) was 43.6%. The “Phytotoxicity Index, Dif A205V-A122T” value ([2]; 3× (240 g ai/ha)) was 4.81, the “biomass, Dif A122T-A205V” value ([2]; 3× (240 g ai/ha)) was 45.3% and the “plant height, Dif A122T-A205V” value ([2]; 3× (240 g ai/ha)) was 45.3%. For the same compound, the “root dry weight, Dif A122T-A205V” value ([2]; 3× (240 g ai/ha)) was 50.2%, the “Phytotoxicity Index, Dif A205V-A122T” value ([2]; 4× (320 g ai/ha)) was 6.92 and the “biomass, Dif A122T-A205V” value ([2]; 4× (320 g ai/ha)) was 52.4%. For the same compound, the “plant height, Dif A122T-A205V” value ([2]; 4× (320 g ai/ha)) was 59.9%, the “root dry weight, Dif A122T-A205V” value ([2]; 4× (320 g ai/ha)) was 50.3% and the “Phytotoxicity Index, Dif A205V-A122T” value ([2]; 5× (400 g ai/ha)) was 7.38. The “biomass, Dif A122T-A205V” value ([2]; 5× (400 g ai/ha)) was 46.9%, the “plant height, Dif A122T-A205V” value ([2]; 5× (400 g ai/ha)) was 57.8% and the “root dry weight, Dif A122T-A205V” value ([2]; 5× (400 g ai/ha)) was 47.9%. The “Phytotoxicity Index, Dif A205V-A122T” value ([2]; 6× (480 g ai/ha)) was 7.03, the “biomass, Dif A122T-A205V” value ([2]; 6× (480 g ai/ha)) was 44.6% and the “plant height, Dif A122T-A205V” value ([2]; 6× (480 g ai/ha)) was 54.0%. The “root dry weight, Dif A122T-A205V” value ([2]; 6× (480 g ai/ha)) was 37.3%.
